According to patent US11844801B2, “Oral compositions of MK2 pathway inhibitor for treatment of immune conditions” (priority 2020, dated 2023):
Converted amounts (≈) assume the structure as drawn. Like-named read-outs stand apart in the source and are kept apart here.

Legend:
TNF-α = assay: Rat whole blood LPS stimulated TNF-α; format: cell-based; settings: 100 ng/mL, 4 hr
IL-10 = assay: Ex vivo stimulated IL-10 in blood of subjects dosed 80 mg or 120 mg; design: species or system human; settings: 80 mg or 120 mg BID
Protocol: Methods: Safety, pharmacokinetics (PK) and pharmacodynamics (PD) were assessed in two cohorts of subjects in a randomized, observer-blind, placebo-controlled study in male and female healthy subjects aged 18-55 (n=77). The study consisted of twenty (20) subjects enrolled into 2 cohorts. […] The final dose was administered in the morning on Day 7. Blood samples were obtained Day 1—before dosing, Day 1—4 hours after dosing and Day 1—12 hours after dosing and Day 7—before dosing, Day 7—4 hours after dosing, day 7—12 hour after dosing and Day 7—24 hours after dosing for each subject.

[1] = 13-week oral administration non-clinical safety study, rat; format: in vivo; settings: for Cmax / AUC(0-t): 30 mg/kg/day oral; for AUC(0-t): read-out: AUC0-24
Protocol: Study Design. […] Rats were administered 0 (vehicle), 3, 10 and 30 mg/kg/day, and Mini-pigs were administered 0 (vehicle) 10, 30 and 60 mg/kg/day

IL-6 [2] = assay: Poly(I:C) stimulated IL-6 production in human whole blood; format: cell-based; settings: 100 ug/mL, 24 hr
Protocol: (§1) Human whole blood assays were performed as described above with the exceptions listed below. […] Compounds were serially diluted in 100% DMSO (Sigma-Aldrich, D2650) followed by a 25× dilution into DMEM/10% FBS (Gibco, 11965/26140). After the one-hour incubation with the compounds or vehicle, 20 μL of poly(I:C) (InvivoGen, HMW, tlrl-pic), in DPBS (Gibco, 14190-136) was added for a final concentration of 100 μg/mL to each well except for the no stimulus wells. After twenty-four hours of incubation with poly(I:C), plasma was harvested and assayed for IP10, IFNγ, IL-6, IL-8 and TNF-α using Meso Scale Discovery Technology V-plex human cytokine kits according to the kit protocol.

IL-8 = assay: IL-1β stimulated IL-8 production in human whole blood; format: cell-based
Protocol: Compounds were serially diluted in 100% DMSO (Sigma-Aldrich, D2650) followed by a 10× dilution into RPMI (Gibco, 11875). After the one-hour incubation with the compounds or vehicle, 2 μL of IL-1β (R&D, 201-LB-010) in RPMI (Gibco, 11875) was added for a final concentration of 0.5 μg/mL to each well except for the no stimulus wells. After six hours of incubation with IL-1β, plasma was harvested and assayed for TNF-α, IL-6 and IL-8 using Meso Scale Discovery Technology V-plex human cytokine kits according to the kit protocol.

[3] = test system: IP10, IFNγ, IL-6, IL-8 and TNF-α; assay: Poly(I:C) (TLR3) stimulated cytokines and chemokines in human whole blood; format: cell-based; settings: poly(I:C) 100 μg/mL, 24 hours
Protocol: as §1

[4] = in vivo; cited from earlier work
IL-6 [5] = assay: IL-1β stimulated IL-6 production in human whole blood; format: cell-based
Protocol: Compounds were serially diluted in 100% DMSO (Sigma-Aldrich, D2650) followed by a 10× dilution into RPMI (Gibco, 11875). After the one-hour incubation with the compounds or vehicle, 2 μL of IL-1β (R&D, 201-LB-010) in RPMI (Gibco, 11875) was added for a final concentration of 0.5 μg/mL to each well except for the no stimulus wells. […]

[6] = Phase 2a RA study: safety (adverse events)
Protocol: Patient eligibility was assessed based on the following criteria: (i) a diagnosis of adult onset RA (ACR/EULAR classification criteria); (ii) DAS28-CRP≥3.2 defined as moderate to high disease activity; (iii) moderately to severely active RA defined by at least 4/28 tender and 4/28 swollen joints; (iv) hsCRP≥5 mg/L at screening; (v) definitive intra-articular synovitis or osteitis defined as a score of 1 or greater on a Hand-Wrist MM (using RAMRIS); (vi) stable MTX dose (defined as 7.5 mg to 25 mg weekly) for at least 4 weeks prior to the screening visit. […] Study medications were administered orally for 12 weeks. Patients were required to remain on a stable dose of MTX (7.5 mg to 25 mg/week) and a stable dose of folic or folinic acid (≥5 mg/week) for the duration of the study.
Patients attended clinic visits on Days 7, 14, 28, 42, 56, and 84 (±1 day) for safety, efficacy, PK, and PD assessments. The morning dose of study medication was administered in the clinic on each study visit day.
At the completion of 4 weeks of treatment (Day 28), each patient's safety data (e.g., AEs, laboratory values, vital signs, and ECGs) will be reviewed to ensure that the patient is tolerating the treatment regimen and is deemed suitable to continue treatment for the next 8 weeks.

[7] = test system: p-HSP27, TNF-α, IL-1β, IL-6 and IL-8; assay: Ex vivo LPS-stimulated p-HSP27 and cytokines in dosed healthy subjects, summary statements over several analytes; design: species or system human; settings: SAD and MAD cohorts
Protocol: Blood samples of 10 mL were collected for PD analysis. For the SAD cohorts, blood was collected before dosing and 1, 12, and 24 hours after dosing. For the MAD cohorts, on day 1 blood was collected before the morning dose and 4 and 12 hours after the morning dose (prior to the evening dose); on day 7, blood was collected before the morning dose and 4 and 12 hours after the morning dose. […] Additional details of the assays for analyzing p-HSP27 and cytokines are included in the Supplementary Information. Pharmacodynamics. PD data analysis was conducted using Microsoft Excel 2010 (Microsoft, Redmond, WA), Meso Scale Discovery Workbench® analysis software (Rockville, MD), and Phoenix WinNonlin, version 8.2.

[8] = female, rat, in vivo, study day 88, females
[9] = male, rat, in vivo, study day 88, males

SMILES: Cc1cnc(-c2ccnc(C(C)(C)O)n2)cc1-n1c(C)cc(OCc2ncc(F)cc2F)c(Cl)c1=O (single isomer, unassigned) [ATI-450, 3-chloro-4-((3,5-difluoropyridin-2-yl)methoxy)-2′-(2-(2-hydroxypropan-2-yl)pyrimidin-4-yl)-5′,6-dimethyl-2H-[1,4′-bipyridin]-2-one]
- IC50 (TNF-α): 14.3 ± 1.9 nM
- IL-10 modulation (IL-10): 25-30%
- non adverse finding, myocytes ([1]; 13-week oral): Minimal to moderate degeneration of myocytes at all doses, including control animals
- mortality ([1]; 13-week oral, up to 30 mg/kg/day): No study drug-related mortality was observed
- recovery of rat non adverse findings ([1]; after 13-week dosing): complete recovery following 28-day non-dosing period
- Cmax [1, 8]: 5440 ng/mL
- AUC(0-t) [1, 8]: 43500 ng·h/mL
- Cmax [1, 9]: 3260 ng/mL
- AUC(0-t) [1, 9]: 36400 ng·h/mL
- NOAEL at 13 weeks ([1]; rat, in vivo, 13-week oral, read-out: no-observed adverse effect level (NOAEL)): 30 mg/kg/day
- non adverse finding, nasal area ([1]; several animals at mid and high dose): minimal ulceration/mixed cell inflammation
- IC50 (IL-6 [2]): 13.2 ± 12.8 nM
- IC80 (IL-8): 0.04 ± 0.012 µg/mL (≈ 0.0778 µM)
- IC50 [3]: 10 to 100 nM
- effect in rat streptococcal cell wall arthritis model [4]: joint protective effects and preserved bone mineral density
- IC50 (IL-6 [5]; Human Whole Blood, IL-1β, 10 ng/mL, 5 hr): 11.1 ± 3.8 nM
- IC80 (IL-6 [5]; human whole blood): 0.041 ± 0.02 µg/mL (≈ 0.0798 µM)
- tolerability ([6]; 50 mg BID plus MTX, 12 weeks): very well tolerated, with no serious or severe adverse events reported
- Abnormal ECG, Mild, n (%) ([6]; 50 mg BID, RA patients, n = 16): 1 (6.25)
- Abnormal ECG, Moderate, n (%) ([6]; 50 mg BID, RA patients, n = 16): 0
- Blood cholesterol increased, Mild, n (%) ([6]; 50 mg BID, RA patients, n = 16): 1 (6.25)
- Blood cholesterol increased, Moderate, n (%) ([6]; 50 mg BID, RA patients, n = 16): 0
- Blood creatine phosphokinase increased, Mild, n (%) ([6]; 50 mg BID, RA patients, n = 16): 0
- Blood creatine phosphokinase increased, Moderate, n (%) ([6]; 50 mg BID, RA patients, n = 16): 1 (6.25)
- Constipation, Mild, n (%) ([6]; 50 mg BID, RA patients, n = 16): 1 (6.25)
- Constipation, Moderate, n (%) ([6]; 50 mg BID, RA patients, n = 16): 0
- Ear infection, Mild, n (%) ([6]; 50 mg BID, RA patients, n = 16): 1 (6.25)
- Ear infection, Moderate, n (%) ([6]; 50 mg BID, RA patients, n = 16): 0
- Essential hypertension, Mild, n (%) ([6]; 50 mg BID, RA patients, n = 16): 0
- Essential hypertension, Moderate, n (%) ([6]; 50 mg BID, RA patients, n = 16): 1 (6.25)
- Hyperliidaemia, Mild, n (%) ([6]; 50 mg BID, RA patients, n = 16): 0
- Hyperliidaemia, Moderate, n (%) ([6]; 50 mg BID, RA patients, n = 16): 1 (6.25)
- Hypokalaemia, Mild, n (%) ([6]; 50 mg BID, RA patients, n = 16): 0
- Hypokalaemia, Moderate, n (%) ([6]; 50 mg BID, RA patients, n = 16): 1 (6.25)
- Ligament sprain, Mild, n (%) ([6]; 50 mg BID, RA patients, n = 16): 1 (6.25)
- Ligament sprain, Moderate, n (%) ([6]; 50 mg BID, RA patients, n = 16): 0
- Low density lipoprotein increased, Mild, n (%) ([6]; 50 mg BID, RA patients, n = 16): 1 (6.25)
- Low density lipoprotein increased, Moderate, n (%) ([6]; 50 mg BID, RA patients, n = 16): 0
- Mouth ulceration, Mild, n (%) ([6]; 50 mg BID, RA patients, n = 16): 1 (6.25)
- Mouth ulceration, Moderate, n (%) ([6]; 50 mg BID, RA patients, n = 16): 0
- Palpitations, Mild, n (%) ([6]; 50 mg BID, RA patients, n = 16): 1 (6.25)
- Palpitations, Moderate, n (%) ([6]; 50 mg BID, RA patients, n = 16): 0
- Rash erythematous, Mild, n (%) ([6]; 50 mg BID, RA patients, n = 16): 1 (6.25)
- Rash erythematous, Moderate, n (%) ([6]; 50 mg BID, RA patients, n = 16): 0
- Sinusitis, Mild, n (%) ([6]; 50 mg BID, RA patients, n = 16): 0
- Sinusitis, Moderate, n (%) ([6]; 50 mg BID, RA patients, n = 16): 1 (6.25)
- Skin abrasion, Mild, n (%) ([6]; 50 mg BID, RA patients, n = 16): 1 (6.25)
- Skin abrasion, Moderate, n (%) ([6]; 50 mg BID, RA patients, n = 16): 0
- Urinary tract infection, Mild, n (%) ([6]; 50 mg BID, RA patients, n = 16): 0
- Urinary tract infection, Moderate, n (%) ([6]; 50 mg BID, RA patients, n = 16): 2 (12.5)
- Ventricular extrasystoles, Mild, n (%) ([6]; 50 mg BID, RA patients, n = 16): 1 (6.25)
- Ventricular extrasystoles, Moderate, n (%) ([6]; 50 mg BID, RA patients, n = 16): 0
- White blood cell count increased, Mild, n (%) ([6]; 50 mg BID, RA patients, n = 16): 1 (6.25)
- White blood cell count increased, Moderate, n (%) ([6]; 50 mg BID, RA patients, n = 16): 0
- modulation of p-HSP27 and inhibition of production of TNF-α, IL-1β, IL-6, and IL-8 [7]: concentration-dependent and dose-dependent modulation
